In paper PMC10793102 (Acta Pharmaceutica Sinica. B, 2023):
Like-named read-outs stand apart in the source and are kept apart here.

What was measured:
[1] = tested on: FADD−/− Jurkat; test: Cell viability assay, protection from necroptosis in FADD−/− Jurkat cells; type: cell-based; settings: Homo sapiens, 16 h
[2] = tested on: L929; test: Cell viability assay, protection from necroptosis in L929 cells; type: cell-based, mouse; settings: Mus musculus, L929, 16 h
[3] = tested on: phosphorylation of RIPK1, RIPK3 and MLKL; test: Western blotting of necroptotic signaling in L929 cells; type: cell-based, mouse
[4] = Metabolic stability in mouse liver microsomes; type: in vitro ADME
[5] = Metabolic stability in human liver microsomes; type: in vitro ADME
[6] = biological target: T1, hRIPK1 (Homo sapiens, UniProt Q13546); test: In vitro RIPK1 kinase activity assay; type: biochemical; settings: Enzymatic IC50s RIPK1, hRIPK1 enzymatic assay
T1 sequence (Q13546 1-671): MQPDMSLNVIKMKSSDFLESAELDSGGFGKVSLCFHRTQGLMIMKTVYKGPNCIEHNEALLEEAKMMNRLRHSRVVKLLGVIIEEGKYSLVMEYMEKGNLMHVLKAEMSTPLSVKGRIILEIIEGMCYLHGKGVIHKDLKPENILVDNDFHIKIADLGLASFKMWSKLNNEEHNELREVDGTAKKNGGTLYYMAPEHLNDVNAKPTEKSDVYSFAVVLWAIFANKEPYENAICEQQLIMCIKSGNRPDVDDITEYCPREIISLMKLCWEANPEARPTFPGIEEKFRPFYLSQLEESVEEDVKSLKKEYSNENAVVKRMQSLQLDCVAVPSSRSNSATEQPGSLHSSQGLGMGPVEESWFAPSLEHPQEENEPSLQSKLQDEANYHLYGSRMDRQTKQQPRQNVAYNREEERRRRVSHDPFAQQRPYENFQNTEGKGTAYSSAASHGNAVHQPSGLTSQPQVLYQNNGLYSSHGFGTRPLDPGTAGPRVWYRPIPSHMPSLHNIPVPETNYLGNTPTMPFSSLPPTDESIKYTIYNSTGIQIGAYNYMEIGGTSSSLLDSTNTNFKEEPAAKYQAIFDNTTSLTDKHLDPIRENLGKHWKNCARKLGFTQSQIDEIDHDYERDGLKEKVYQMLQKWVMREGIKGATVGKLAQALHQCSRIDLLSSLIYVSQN

[7] = biological target: hRIPK3 (Homo sapiens, UniProt Q9Y572); test: In vitro RIPK3 kinase activity assay; type: biochemical
Sequence of hRIPK3 (Q9Y572 whole entry): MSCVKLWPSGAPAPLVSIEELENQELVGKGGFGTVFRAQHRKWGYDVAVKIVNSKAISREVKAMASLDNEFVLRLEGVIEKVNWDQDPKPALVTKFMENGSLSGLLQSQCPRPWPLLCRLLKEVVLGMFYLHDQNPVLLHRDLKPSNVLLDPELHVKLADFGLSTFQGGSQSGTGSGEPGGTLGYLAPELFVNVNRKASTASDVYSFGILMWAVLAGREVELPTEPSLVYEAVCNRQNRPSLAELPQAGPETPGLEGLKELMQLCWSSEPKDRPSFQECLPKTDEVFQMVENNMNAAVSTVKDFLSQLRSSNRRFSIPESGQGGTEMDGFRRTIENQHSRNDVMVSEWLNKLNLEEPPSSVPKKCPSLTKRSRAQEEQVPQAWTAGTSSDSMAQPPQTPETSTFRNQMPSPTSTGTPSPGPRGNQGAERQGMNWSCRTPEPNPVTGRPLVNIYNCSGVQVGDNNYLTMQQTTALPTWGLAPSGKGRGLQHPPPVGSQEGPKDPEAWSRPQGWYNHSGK

[8] = biological target: T2, CYP2C8 (Homo sapiens, UniProt P10632); test: CYP450 inhibition; type: in vitro ADME
T2 sequence (P10632 1-490): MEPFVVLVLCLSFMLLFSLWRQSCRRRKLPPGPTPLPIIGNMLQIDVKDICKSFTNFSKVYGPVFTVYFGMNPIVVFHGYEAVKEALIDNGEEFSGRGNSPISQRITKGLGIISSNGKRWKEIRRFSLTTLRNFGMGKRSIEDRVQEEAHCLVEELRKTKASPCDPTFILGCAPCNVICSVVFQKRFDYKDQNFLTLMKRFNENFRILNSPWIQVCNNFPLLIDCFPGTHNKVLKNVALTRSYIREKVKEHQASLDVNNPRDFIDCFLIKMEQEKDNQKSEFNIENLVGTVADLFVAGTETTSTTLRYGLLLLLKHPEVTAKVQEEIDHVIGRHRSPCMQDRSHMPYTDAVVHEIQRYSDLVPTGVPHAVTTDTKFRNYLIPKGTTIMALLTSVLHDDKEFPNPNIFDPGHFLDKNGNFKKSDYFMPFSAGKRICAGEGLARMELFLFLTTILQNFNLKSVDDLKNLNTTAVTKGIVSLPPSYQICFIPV

[9] = PK study in mice; type: in vivo; settings: male, ICR, mouse, plasma
[10] = Cytotoxicity at high concentrations in cell viability assays; type: cell-based
[11] = biological target: TEL-TRKA fusion (Homo sapiens, UniProt P04629+P41212); test: Anti-proliferation in engineered Ba/F3 cells dependent on TEL-TRKA; type: cell-based; settings: read-out: IC50 anti-proliferative effect, TEL-TRKA Ba/F3; 72 h
Sequence of TEL-TRKA fusion (P04629 510-781 limits assumed, one chain of several): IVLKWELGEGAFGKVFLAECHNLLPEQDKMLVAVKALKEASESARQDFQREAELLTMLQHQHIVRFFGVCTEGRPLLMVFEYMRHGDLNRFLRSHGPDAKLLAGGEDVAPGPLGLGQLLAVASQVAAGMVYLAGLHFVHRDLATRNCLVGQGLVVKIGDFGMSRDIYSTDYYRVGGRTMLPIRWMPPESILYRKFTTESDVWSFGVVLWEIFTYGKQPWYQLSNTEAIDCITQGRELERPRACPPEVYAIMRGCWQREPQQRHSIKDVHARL

[12] = read-out: EC50 FADD−/− Jurkat T + S
[13] = read-out: EC50 FADD−/− Jurkat TNFα

Compound | IC50 [6] [nM] | IC50 [7] [nM] | AUC(0-inf) ([9]; iv, 1 mg/kg) [ng·h/mL] | AUC(0-t) ([9]; iv, 1 mg/kg) [ng·h/mL] | MRT inf ([9]; iv, 1 mg/kg) [min] | Vd ([9]; iv, 1 mg/kg) [L/kg] | clearance ([9]; iv, 1 mg/kg) [mL/min/kg] | half-life ([9]; iv, 1 mg/kg) [min] | AUC(0-inf) ([9]; po, 10 mg/kg) [ng·h/mL] | AUC(0-t) ([9]; po, 10 mg/kg) [ng·h/mL] | Cmax ([9]; po, 10 mg/kg) [ng/mL] | MRT inf ([9]; po, 10 mg/kg) [min] | Tmax ([9]; po, 10 mg/kg) [min] | bioavailability ([9]; po, 10 mg/kg) [%] | half-life ([9]; po, 10 mg/kg) [min] | EC50 [1, 12] [nM] | EC50 [1, 13] [nM] | EC50 ([2]; read-out: EC50 L929 T + S) [nM] | EC50 ([2]; read-out: EC50 L929 TNFα) [nM] | other results
CN1C(=O)[C@@H](NC(=O)c2n[nH]c(Cc3ccccc3)n2)COc2ccccc21 [compound 2, GSK2982772, reference compound] | – | – | – | – | – | – | – | – | – | – | – | – | – | – | – | 3.9 | 0.5 | 8280 | 1200 | phosphorylation cascade (Western blot), L929 [3]: inactive even at 1 μmol/L
CNC(=O)c1ccc2c(c1)ncn2-c1ccc(CNC(=O)c2cc(Cc3ccccc3)n(C)n2)cc1 [compound 20, 1-(4-((5-Benzyl-1-methyl-1H-pyrazole-3-carboxamido)methyl)phenyl)-N-methyl-1H-benzo[d]imidazole-5-carboxamide] | – | – | – | – | – | – | – | – | – | – | – | – | – | – | – | 44 | 5.1 | – | 312 | half-life [4]: ~40 min; half-life [5]: ~40 min
CNC(=O)c1ccc2c(c1)ncn2-c1ccc(CNC(=O)c2cnn(C)c2Cc2ccccc2)cc1 [compound 27] | – | – | – | – | – | – | – | – | – | – | – | – | – | – | – | 5.2 | 0.5 | 77 | 20 | half-life [4]: ~40 min; half-life [5]: ~40 min
Cn1ncc(C(=O)NCc2ccc(-n3cnc4c(N)ncnc43)cc2)c1Cc1ccccc1 [compound 39, N-(4-(6-Amino-9H-purin-9-yl)benzyl)-5-benzyl-1-methyl-1H-pyrazole-4-carboxamide] | 9.5 | > 1000 | 882 | 862 | 125 | 2.35 | 18.3 | 48.6 | 2210 | 2190 | 1340 | 153 | 19.8 | 25.4 | 80.4 | 1 | 0.04 | 3.6 | 0.9 | inhibition of CYP2C8 (in words) [8]: weakly inhibited CYP2C8
C[C@H](NC(=O)c1c(Cl)nn(C)c1Cc1ccccc1)c1ccc(-n2cnc3c(N)ncnc32)cc1 [compound 57] | – | – | – | – | – | – | – | – | – | – | – | – | – | – | – | 0.3 | 0.09 | 0.4 | 0.3 | cytotoxicity at high concentrations [10]: increased cytotoxicity at higher concentrations
C[C@H](NC(=O)c1nnn(C)c1Cc1ccccc1)c1ccc(-n2cnc3c(N)ncnc32)cc1 [compound 58] | – | – | – | – | – | – | – | – | – | – | – | – | – | – | – | < 0.01 | < 0.01 | < 0.01 | < 0.01 | cytotoxicity at high concentrations [10]: increased cytotoxicity at higher concentrations

Now from value to compound, other results behind:

IC50 [6] [nM] | IC50 [7] [nM] | AUC(0-inf) ([9]; iv, 1 mg/kg) [ng·h/mL] | AUC(0-t) ([9]; iv, 1 mg/kg) [ng·h/mL] | MRT inf ([9]; iv, 1 mg/kg) [min] | Vd ([9]; iv, 1 mg/kg) [L/kg] | clearance ([9]; iv, 1 mg/kg) [mL/min/kg] | half-life ([9]; iv, 1 mg/kg) [min] | AUC(0-inf) ([9]; po, 10 mg/kg) [ng·h/mL] | AUC(0-t) ([9]; po, 10 mg/kg) [ng·h/mL] | Cmax ([9]; po, 10 mg/kg) [ng/mL] | MRT inf ([9]; po, 10 mg/kg) [min] | Tmax ([9]; po, 10 mg/kg) [min] | bioavailability ([9]; po, 10 mg/kg) [%] | half-life ([9]; po, 10 mg/kg) [min] | Compound | EC50 [1, 12] [nM] | EC50 [1, 13] [nM] | EC50 ([2]; read-out: EC50 L929 T + S) [nM] | EC50 ([2]; read-out: EC50 L929 TNFα) [nM] | other results
~6 | > 1000 | 1420 | 1240 | 630 | 6.98 | 11.7 | 61.8 | 4330 | 4110 | 1220 | 345 | 40.2 | 33.3 | 99 | Cn1nnc(C(=O)NCc2ccc(-n3cnc4c(N)ncnc43)cc2)c1Cc1ccccc1 [compound 49, N-(4-(6-Amino-9H-purin-9-yl)benzyl)-5-benzyl-1-methyl-1H-1,2,3-triazole-4-carboxamide] | 0.5 | 0.06 | 0.06 | 0.03 | inhibition of CYP2C8 (in words) [8]: weakly inhibited CYP2C8
~6 | > 1000 | 672 | 659 | 119 | 2.98 | 25 | 26.4 | 2480 | 2440 | 1200 | 183 | 30 | 37 | 54 | C[C@H](NC(=O)c1cnn(C)c1Cc1ccccc1)c1ccc(-n2cnc3c(N)ncnc32)cc1 [compound 54, (S)-N-(1-(4-(6-Amino-9H-purin-9-yl)phenyl)ethyl)-5-benzyl-1-methyl-1H-pyrazole-4-carboxamide] | 0.3 | 0.08 | 0.6 | 0.4 | –
– | – | 644 | 643 | 58.2 | 1.6 | 26.7 | 36.6 | 1730 | 1700 | 714 | 165 | 40.2 | 26.4 | 63 | C[C@@H](c1ccc(-n2cnc3c(N)ncnc32)cc1)N1Cc2nn(C)c(Cc3ccccc3)c2C1=O [compound 63, (S)-5-(1-(4-(6-Amino-9H-purin-9-yl)phenyl)ethyl)-3-benzyl-2-methyl-5,6-dihydropyrrolo[3,4-c]pyrazol-4(2H)-one] | 0.4 | 0.03 | 1.6 | 0.3 | IC50 [11]: > 1000 nM
